This is an account of results in patent US10322177B2, “Activation of immune-related signaling pathways in cells via optofection” (Nant Holdings IP, LLC, priority 2015, dated 2019).

What all share (format): cell-based, murine
In data set [1] the test system is RAW-Lucia target cells. Kind of data set: Relative luciferase activity of RAW-Lucia cells after BLAST delivery (FIG. 5). The note with it: Treatment 2: BLAST, 2.5 uM cGAMP solution; 4 hour and 24 hour. As to the method:
FIG. 5 provides further experimental evidence with respect to the efficiency of cargo delivery to the specific target cells with respect to using a biophotonic laser-assisted surgery tool (BLAST, as described in Nature Methods 12, 439-444 (2015)). The two charts of FIG. 5 show the relative luciferase activity of RAW-Lucia target cells four hours after treatment and 24 hours after treatment under three different treatment configurations.
Treatment configuration 1 represents a control group where the cell population is not treated in order to provide a base line result.
Treatment configuration 2 leverages BLAST where the cell population is bathed in a 2.5 uM cGAMP solution.
Treatment configuration 3 includes co-incubation of the cell populations with a 2.5 uM cGAMP solution. However, the cell population is not exposed to laser stimulation via BLAST.
It should be appreciated that FIG. 5 illustrates the efficacy of a method of inducing an interferon response in specific target cells, including target cells within a heterogeneous cell population. Free cyclic di-nucleotide cargo (i.e., cGAMP in the scenario of FIG. 5) was introduced to the cell population such that the cGAMP remained external to the target cells in a 2.5 uM solution. […]

For data set [2], the system named is RAW-Lucia ISG cells. Kind of data set: RAW-Lucia ISG luciferase reporter, gold nanoparticle optofection of cGAMP (photomicrographs, FIGS. 2A-2C). The source says:
FIGS. 2A-2C illustrate experimental evidence indicating the validity of the disclosed techniques though the use of RAW-Lucia® ISG cells that express luciferase when a Type I IFN response pathway is activated (see FIG. 3) by a CDN.
FIG. 2A represents an experiment where gold nanoparticles lacking target cell ligands (here ligand for […]) and cGAMP cargo material are introduced to the cell population. No electro-magnetic stimulation is applied.
FIG. 2B represents an experiment where gold nanoparticles lacking target cell ligands (ligand for CD14) and cGAMP cargo material are introduced to the cell population. In this experiment, the nanoparticles were exposed to 3 mJ pulsed laser. […] The luciferase expression in FIG. 2B is considered to be present in response to random proximity of the gold nanoparticles to cells when the gold nanoparticles are excited by the laser.
FIG. 2C represents an experiment where gold nanoparticles having a CD14 ligand and cGAMP cargo material are both introduced to the cell population. In this case, the nanoparticles attach to the target cells.
The immune response induced in the experiments shown in FIGS. 2A-2C is evidenced by production of luciferase in specifically targeted cells. A mentioned previously, the specifically target cells selected for the experiments were RAW-Lucia™ ISG cells commercially available from InvivoGen® (see URL www.invivogen.com/raw-lucia-isg). The RAW-Lucia cells express luciferase gene (Lucia) through various IFN-stimulated response elements (ISRE) as indicated in FIG. 3. Thus, when an IFN response is stimulated, the cells express the luciferase gene. Of specific note, when CDNs are introduced to the RAW-Lucia cells, the IFN response is activated causing expression of the luciferase gene. Therefore, FIG. 2C clearly provides evidence via substantial luciferase expression that the disclosed technique of causing a cell to uptake CDNs (e.g., cGAMP, etc.) via externally generated poration is capable of inducing an immune response. Such result is not necessarily predictable as laser excitation and concomitant cavitation events may damage or interfere with signal transduction events.
Background: In a reporter assay the amount or activity of a reporter protein is the signal.

Data set [3] relates to RAW-Lucia target cells. Kind of data set: Relative luciferase activity of RAW-Lucia cells under treatment configurations (FIG. 4). As to the method: FIG. 4 provides further experimental evidence with respect to the efficiency of cargo delivery to the specific target cells. The two charts show the relative luciferase activity of RAW-Lucia target cells four hours after treatment and 24 hours after treatment under different treatment configurations.
Treatment configuration 1 represents a cell population having no treatment where no nanoparticles and no laser are introduced to the RAW-Lucia cell population.
Treatment configuration 2 represents a cell population treated with CD14 ligand coated gold nanoparticles and a 10 uM cGAMP solution.
Treatment configuration 3 is similar to treatment configuration 2 with the exception that a 1 uM cGAMP solution was introduced to the cell population rather than a 10 uM cGAMP solution.
Treatment configuration 4 includes treating the target cells with just nanoparticles coated with CD14 ligand followed by application of laser stimulation.
Treatment configuration 5 is similar to Treatment 4, although lacking laser stimulation.
Treatment configuration 6 includes treating the cell population with just a 10 uM cGAMP solution without nanoparticles or application of laser stimulation.

[4] abbreviates: gold nanoparticles having a CD14 ligand plus cGAMP, 2 mJ pulsed laser (FIG. 2C).

In the case of `Nc1nc2c(ncn2[C@@H]2O[C@@H]3COP(=O)(O)O[C@H]4[C@@H](O)[C@H](n5cnc6c(N)ncnc65)O[C@@H]4COP(=O)(O)O[C@@H]2[C@@H]3O)c(=O)[nH]1` [cGAMP], the relative luciferase activity result is recorded as “significant luciferase activity” in data set [1]; “significant luciferase activity” in data set [3] (Treatment 2: CD14 ligand coated gold nanoparticles, 10 uM cGAMP solution, laser, 4 h and 24 h after treatment); “fairly similar to Treatment 2” in data set [3] (Treatment 3: CD14 ligand coated gold nanoparticles, 1 uM cGAMP solution, laser, 4 h and 24 h after treatment); “reduced level of luciferase activity” in data set [3] (Treatment 6: 10 uM cGAMP solution only, no nanoparticles, no laser). Besides, in data set [2] (setting [4]), the cell viability result is “substantially all cells retained viability”. In addition, the luciferase expression entry in data set [2] (setting [4]) is listed as “nearly all cells express luciferase”; in data set [2] (gold nanoparticles lacking target cell ligands plus cGAMP, 3 mJ pulsed laser (FIG. 2B)) it was “some cells express luciferase”; in data set [2] (gold nanoparticles lacking target cell ligands plus cGAMP, no electro-magnetic stimulation (FIG. 2A)), “very little or negligible luciferase expression”.
